Experimental findings from patent US20220132847A1, “CINNOLINIUM COMPOUNDS FOR USE IN A METHOD OF CONTROLLING UNWANTED PLANT GROWTH” (SYNGENTA CROP PROTECTION AG, priority 2019, published 2022) are described below.

Common to all, as to assay: Post-emergence efficacy, glasshouse
Holding throughout (type): in vivo
Holding throughout (settings): evaluated after 13 days, 100=total damage to plant, 0=no damage to plant

Assay [1] concerns Ipomoea hederacea (IPOHE). In short, it runs like this: (§1)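 Plants grown 14 days in standard soil in pots in the glasshouse (24/16° C. day/night, 14 h light, 65% humidity) were sprayed with test compound diluted in 0.25% or 1% Empicol ESC70 plus 1% ammonium sulphate in water. Damage was scored 13 days later (0 = none, 100 = total).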
Assay [2] deals with Euphorbia heterophylla (EPHHL). An outline of the steps: as §1
In assay [3] the test system is Lolium perenne (LOLPE). An outline of the steps: as §1
Assay [4] deals with Echinochloa crus-galli (ECHCG). An outline of the steps:
as §1

The subject of assay [5] is Amaranthus palmeri (AMAPA). An outline of the steps:
as §1

Assay [6] has as its system Eleusine indica (ELEIN). In short, it runs like this: as §1
Assay [7] has as its system Digitaria sanguinalis (DIGSA). In short, it runs like this:
as §1

In assay [8] the test system is Setaria faberi (SETFA). An outline of the steps:
as §1

For assay [9], the system named is Chenopodium album (CHEAL). An outline of the steps:
as §1

Where [10] appears, read: Ipomoea hederacea, post-emergence, 312 h, Application Rate 1000 g/Ha, read-out: Control of weed species after post-emergence application, IPOHE.
[11] abbreviates: Euphorbia heterophylla, post-emergence, 312 h, Application Rate 1000 g/Ha, read-out: Control of weed species after post-emergence application, EPHHL.
Setting [12] is: Lolium perenne, post-emergence, 312 h, Application Rate 1000 g/Ha, read-out: Control of weed species after post-emergence application, LOLPE.
Setting [13] is: Echinochloa crus-galli, post-emergence, 312 h, Application Rate 1000 g/Ha, read-out: Control of weed species after post-emergence application, ECHCG.
The mark [14] stands for this setting: Amaranthus palmeri, post-emergence, 312 h, Application Rate 1000 g/Ha, read-out: Control of weed species after post-emergence application, AMAPA.
Where [15] appears, read: Eleusine indica, post-emergence, 312 h, Application Rate 1000 g/Ha, read-out: Control of weed species after post-emergence application, ELEIN.
[16] abbreviates: Digitaria sanguinalis, post-emergence, 312 h, Application Rate 1000 g/Ha, read-out: Control of weed species after post-emergence application, DIGSA.
The mark [17] stands for this setting: Setaria faberi, post-emergence, 312 h, Application Rate 1000 g/Ha, read-out: Control of weed species after post-emergence application, SETFA.
Where [18] appears, read: Chenopodium album, post-emergence, 312 h, Application Rate 1000 g/Ha, read-out: Control of weed species after post-emergence application, CHEAL.

Counter-ions that a name gives are not always drawn.

As to `C[n+]1cc(S(=O)(=O)[O-])c2ccccc2n1` [Compound A6, 2-methylcinnolin-2-ium-4-sulfonate], the pest or weed control at 1000 g/ha in assay [1] (setting [10]) worked out at 0%; in assay [2] (setting [11]), 60%; in assay [3] (setting [12]), 10%; in [4] (setting [13]), 10%; in [5] (setting [14]), 10%; in [6] (setting [15]) it was 10%. Also, the pest or weed control at 1000 g/ha in assay [7] (setting [16]) was determined as 10%; in [8] (setting [17]), 10%; in [9] (setting [18]), 60%.

As to `C[n+]1cc(C(=O)[N-]c2nnn[nH]2)c2ccccc2n1` [Compound A17], the pest or weed control at 1000 g/ha in assay [1] (setting [10]) was determined as 40%; in assay [2] (setting [11]), 20%; in assay [3] (setting [12]), 10%; in assay [4] (setting [13]) it was 0%; in assay [5] (setting [14]) it was 50%; in assay [6] (setting [15]) it was 20%. For the same compound, the pest or weed control at 1000 g/ha amounted to 10% in assay [7] (setting [16]), 10% in assay [8] (setting [17]) and 30% in [9] (setting [18]).

As to `C[n+]1cc(OCC(=O)O)c2ccccc2n1` [Compound A58], the pest or weed control at 1000 g/ha in [1] (setting [10]) was 20%; in assay [2] (setting [11]) it was 20%; in [3] (setting [12]) it was 0%; in [4] (setting [13]), 10%; in assay [5] (setting [14]), 80%; in [6] (setting [15]), 30%. For the same compound, the pest or weed control at 1000 g/ha was 70% in assay [7] (setting [16]), 60% in [8] (setting [17]) and 70% in [9] (setting [18]).

`C[n+]1cc(P(C)(=O)O)c2ccccc2n1` [Compound A31]: the pest or weed control at 1000 g/ha in assay [1] (setting [10]) is 90%; in [2] (setting [11]), 100%; in assay [3] (setting [12]), 70%; in assay [4] (setting [13]), 60%; in assay [5] (setting [14]) it was 100%; in assay [6] (setting [15]), 100%. Also, the pest or weed control at 1000 g/ha is 100% in [7] (setting [16]), 90% in [8] (setting [17]) and 80% in [9] (setting [18]).

Turning to `O=C(O)CC[n+]1cc(C(=O)[N-]S(=O)(=O)C2CC2)c2ccccc2n1` [Compound A20, [2-(2-carboxyethyl)cinnolin-2-ium-4-carbonyl]-cyclopropylsulfonyl-azanide], the pest or weed control at 1000 g/ha in [1] (setting [10]) stood at 10%; in assay [2] (setting [11]) it was 20%; in assay [3] (setting [12]), 0%; in assay [4] (setting [13]), 10%; in assay [5] (setting [14]) it was 50%; in [6] (setting [15]), 0%. The figures for the pest or weed control at 1000 g/ha in [7] (setting [16]), in assay [8] (setting [17]) and in [9] (setting [18]) were 0%, 0% and 30%, respectively.

In the case of `CCOP(=O)(Cc1c[n+](C)nc2ccccc12)OCC.[I-]` [Compound A47, 4-(diethoxyphosphorylmethyl)-2-methyl-cinnolin-2-ium iodide], in assay [1] (Application Rate 1000 g/Ha), the “Control of weed species after post-emergence application, IPOHE” value was 20. Moreover, the “Control of weed species after post-emergence application, EPHHL” value in assay [2] (Application Rate 1000 g/Ha) is on record as 30. The “Control of weed species after post-emergence application, LOLPE” value in [3] (Application Rate 1000 g/Ha) stood at 10. In assay [4] (Application Rate 1000 g/Ha), the “Control of weed species after post-emergence application, ECHCG” value came out at 30. Moreover, in assay [5] (Application Rate 1000 g/Ha), the “Control of weed species after post-emergence application, AMAPA” value is reported as 60. For the same compound, the “Control of weed species after post-emergence application, ELEIN” value in assay [6] (Application Rate 1000 g/Ha) stood at 50. The “Control of weed species after post-emergence application, DIGSA” value in assay [7] (Application Rate 1000 g/Ha) turned out to be 40. Besides, the “Control of weed species after post-emergence application, SETFA” value in assay [8] (Application Rate 1000 g/Ha) is reported as 40. Besides, the “Control of weed species after post-emergence application, CHEAL” value in [9] (Application Rate 1000 g/Ha) is reported as 70.

As for `CC(C)P(=O)([O-])c1c[n+](C)nc2ccccc12` [Compound A46], the pest or weed control at 1000 g/ha was found to be 100% in assay [1] (setting [10]); 100% in assay [2] (setting [11]); 60% in assay [3] (setting [12]); 90% in [4] (setting [13]); 100% in assay [5] (setting [14]); 100% in [6] (setting [15]). Also, the pest or weed control at 1000 g/ha in [7] (setting [16]) was 100%; in assay [8] (setting [17]) it was 90%; in assay [9] (setting [18]) it was 100%.

In the case of `CC(C)S(=O)(=O)[N-]C(=O)c1c[n+](C)nc2ccccc12` [Compound A34], the pest or weed control at 1000 g/ha in [1] (setting [10]) worked out at 50%; in assay [2] (setting [11]), 60%; in assay [3] (setting [12]), 0%; in assay [4] (setting [13]), 20%; in assay [5] (setting [14]), 20%; in assay [6] (setting [15]), 40%. The pest or weed control at 1000 g/ha is 30% in [7] (setting [16]), 60% in assay [8] (setting [17]) and 50% in assay [9] (setting [18]).

On to `O=C(O)c1c[n+](CCOS(=O)(=O)[O-])nc2ccccc12` [Compound A28, 2-(4-carboxycinnolin-2-ium-2-yl)ethyl sulfate], for which the pest or weed control at 1000 g/ha is 20% in [1] (setting [10]); 30% in assay [2] (setting [11]); 50% in assay [3] (setting [12]); 20% in [4] (setting [13]); 90% in [5] (setting [14]); 40% in [6] (setting [15]). Also, the pest or weed control at 1000 g/ha in assay [7] (setting [16]) was 70%; in assay [8] (setting [17]), 40%; in [9] (setting [18]) it was 70%.

Take `COP(=O)(O)Cc1c[n+](C)nc2ccccc12` [Compound A53]: the pest or weed control at 1000 g/ha is 100% in assay [1] (setting [10]); 100% in assay [2] (setting [11]); 30% in assay [3] (setting [12]); 80% in assay [4] (setting [13]); 100% in assay [5] (setting [14]); 100% in [6] (setting [15]). Besides, the pest or weed control at 1000 g/ha in [7] (setting [16]) came to 90%; in [8] (setting [17]) it was 90%; in assay [9] (setting [18]), 70%.

As for `CCOP(=O)(O)CCc1c[n+](C)nc2ccccc12` [Compound A54, ethoxy-[2-(2-methylcinnolin-2-ium-4-yl)ethyl]phosphinic acid 2,2,2-trifluoroacetate], the pest or weed control at 500 g/ha was determined as 20% in assay [1] (Ipomoea hederacea, post-emergence, 312 h, Application Rate 500 g/Ha, read-out: Control of weed species after post-emergence application, IPOHE); 80% in assay [2] (Euphorbia heterophylla, post-emergence, 312 h, Application Rate 500 g/Ha, read-out: Control of weed species after post-emergence application, EPHHL); 20% in assay [3] (Lolium perenne, post-emergence, 312 h, Application Rate 500 g/Ha, read-out: Control of weed species after post-emergence application, LOLPE); 30% in [4] (Echinochloa crus-galli, post-emergence, 312 h, Application Rate 500 g/Ha, read-out: Control of weed species after post-emergence application, ECHCG); 30% in [5] (Amaranthus palmeri, post-emergence, 312 h, Application Rate 500 g/Ha, read-out: Control of weed species after post-emergence application, AMAPA); 30% in assay [6] (Eleusine indica, post-emergence, 312 h, Application Rate 500 g/Ha, read-out: Control of weed species after post-emergence application, ELEIN). Also, the pest or weed control at 500 g/ha in assay [7] (Digitaria sanguinalis, post-emergence, 312 h, Application Rate 500 g/Ha, read-out: Control of weed species after post-emergence application, DIGSA) came out at 40%; in assay [8] (Setaria faberi, post-emergence, 312 h, Application Rate 500 g/Ha, read-out: Control of weed species after post-emergence application, SETFA) it was 30%; in assay [9] (Chenopodium album, post-emergence, 312 h, Application Rate 500 g/Ha, read-out: Control of weed species after post-emergence application, CHEAL) it was 20%.
